According to ChEMBL document CHEMBL3046164, “A facile synthesis of some 3-cyano-1,4,6-trisubstituted-2(1H)-pyridinones and their biological evaluation as anticancer agents” (2011):

How the values were obtained:
Format in all cases: functional
SNB-75 [1] = assay: Cytotoxicity against Homo sapiens (human) SNB75 cells after 48 hr by SRB assay; conditions: SNB-75, 48 h
UACC-62 = assay: Cytotoxicity against Homo sapiens (human) UACC62 cells after 48 hr by SRB assay; conditions: UACC-62, 48 h
SF-539 = assay: Cytotoxicity against Homo sapiens (human) SF539 cells after 48 hr by SRB assay; conditions: SF-539, 48 h
SF-268 = assay: Cytotoxicity against Homo sapiens (human) SF268 cells after 48 hr by SRB assay; conditions: SF-268, 48 h
HCC 2998 [2] = assay: Cytotoxicity against Homo sapiens (human) HCC2998 cells after 48 hr by SRB assay; conditions: HCC 2998, 48 h
HOP-92 [3] = assay: Cytotoxicity against Homo sapiens (human) HOP92 cells after 48 hr by SRB assay; conditions: HOP-92, 48 h
EKVX [4] = assay: Cytotoxicity against Homo sapiens (human) EKVX cells after 48 hr by SRB assay
HOP-62 [5] = assay: Cytotoxicity against Homo sapiens (human) HOP62 cells after 48 hr by SRB assay; conditions: HOP-62, 48 h
SR = assay: Cytotoxicity against Homo sapiens (human) SR cells after 48 hr by SRB assay
RPMI-8226 [6] = assay: Cytotoxicity against Homo sapiens (human) RPMI8226 cells after 48 hr by SRB assay; conditions: Homo sapiens, RPMI-8226, 48 h
CCRF-CEM [7] = assay: Cytotoxicity against Homo sapiens (human) CCRF-CEM cells after 48 hr by SRB assay
HL-60(TB) [8] = assay: Cytotoxicity against Homo sapiens (human) HL-60(TB) cells after 48 hr by SRB assay; conditions: HL-60, 48 h
U-251 = assay: Growth inhibition of Homo sapiens (human) U251 cells at 10 uM after 48 hr by SRB assay; conditions: U-251, 48 h, read-out: GI
SNB-75 [9] = assay: Growth inhibition of Homo sapiens (human) SNB75 cells at 10 uM after 48 hr by SRB assay; conditions: SNB-75, 48 h, read-out: GI
SK-MEL-5 = assay: Growth inhibition of Homo sapiens (human) SK-MEL-5 cells at 10 uM after 48 hr by SRB assay; conditions: SK-MEL-5, 48 h, read-out: GI
SF-295 = assay: Growth inhibition of Homo sapiens (human) SF295 cells at 10 uM after 48 hr by SRB assay; conditions: SF-295, 48 h, read-out: GI
M14 = assay: Growth inhibition of Homo sapiens (human) M14 cells at 10 uM after 48 hr by SRB assay; conditions: M14, 48 h, read-out: GI
LOX IMVI = assay: Growth inhibition of Homo sapiens (human) LOXIMVI cells at 10 uM after 48 hr by SRB assay; conditions: read-out: GI
CAKI-1 = assay: Growth inhibition of Homo sapiens (human) CAKI-1 cells at 10 uM after 48 hr by SRB assay; conditions: CAKI-1, 48 h, read-out: GI
RPMI-8226 [10] = assay: Growth inhibition of Homo sapiens (human) RPMI8226 cells at 10 uM after 48 hr by SRB assay; conditions: RPMI-8226, 48 h, read-out: GI
786-0 = assay: Growth inhibition of Homo sapiens (human) 786-0 cells at 10 uM after 48 hr by SRB assay; conditions: 786-0, 48 h, read-out: GI
MDA-MB-435 = assay: Growth inhibition of Homo sapiens (human) MDA-MB-435 cells at 10 uM after 48 hr by SRB assay; conditions: MDA-MB-435, 48 h, read-out: GI
HCC 2998 [11] = assay: Growth inhibition of Homo sapiens (human) HCC2998 cells at 10 uM after 48 hr by SRB assay; conditions: HCC 2998, 48 h, read-out: GI
COLO 205 = assay: Growth inhibition of Homo sapiens (human) COLO205 cells at 10 uM after 48 hr by SRB assay; conditions: COLO 205, 48 h, read-out: GI
NCI-H460 = assay: Growth inhibition of Homo sapiens (human) NCI-H460 cells at 10 uM after 48 hr by SRB assay; conditions: NCI-H460, 48 h, read-out: GI
HOP-62 [12] = assay: Growth inhibition of Homo sapiens (human) HOP62 cells at 10 uM after 48 hr by SRB assay; conditions: HOP-62, 48 h, read-out: GI
A498 [13] = assay: Growth inhibition of Homo sapiens (human) A498 cells at 10 uM after 48 hr by SRB assay; conditions: A498, 48 h, read-out: GI
EKVX [14] = assay: Growth inhibition of Homo sapiens (human) EKVX cells at 10 uM after 48 hr by SRB assay; conditions: read-out: GI
HL-60(TB) [15] = assay: Growth inhibition of Homo sapiens (human) HL-60(TB) cells at 10 uM after 48 hr by SRB assay; conditions: HL-60, 48 h, read-out: GI
CCRF-CEM [16] = assay: Growth inhibition of Homo sapiens (human) CCRF-CEM cells at 10 uM after 48 hr by SRB assay; conditions: read-out: GI
K562 = assay: Growth inhibition of Homo sapiens (human) K562 cells at 10 uM after 48 hr by SRB assay; conditions: K562, 48 h, read-out: GI
HOP-92 [17] = assay: Growth inhibition of Homo sapiens (human) HOP92 cells at 10 uM after 48 hr by SRB assay; conditions: HOP-92, 48 h, read-out: GI
T47D = assay: Cytotoxicity against Homo sapiens (human) T47D cells after 48 hr by SRB assay
A549 = assay: Growth inhibition of Homo sapiens (human) A549 cells at 10 uM after 48 hr by SRB assay; conditions: A549, 48 h, read-out: GI
BT-549 = assay: Cytotoxicity against Homo sapiens (human) BT549 cells after 48 hr by SRB assay; conditions: BT-549, 48 h
MDA-MB-231 = assay: Cytotoxicity against Homo sapiens (human) MDA-MB-231 cells after 48 hr by SRB assay; conditions: MDA-MB-231, 48 h
UO-31 = assay: Cytotoxicity against Homo sapiens (human) UO31 cells after 48 hr by SRB assay; conditions: UO-31, 48 h
OVCAR-4 = assay: Cytotoxicity against Homo sapiens (human) OVCAR4 cells after 48 hr by SRB assay; conditions: OVCAR-4, 48 h
A498 [18] = assay: Cytotoxicity against Homo sapiens (human) A498 cells after 48 hr by SRB assay; conditions: A498, 48 h
OVCAR-3 = assay: Cytotoxicity against Homo sapiens (human) OVCAR3 cells after 48 hr by SRB assay; conditions: OVCAR-3, 48 h
IGROV-1 = assay: Cytotoxicity against Homo sapiens (human) IGROV1 cells after 48 hr by SRB assay; conditions: IGROV-1, 48 h

Structure (SMILES): Cn1cccc1-c1cc(-c2ccc(Br)cc2)n(C(=S)Nc2ccc(F)cc2)c(=O)c1C#N
- GI50 (SNB-75 [1]): 38 µM
- GI50 (UACC-62): 72.4 µM
- GI50 (SF-539): > 100 µM
- GI50 (SF-268): 20.4 µM
- GI50 (HCC 2998 [2]): > 100 µM
- GI50 (HOP-92 [3]): > 100 µM
- GI50 (EKVX [4]): 0.01 µM
- TGI (EKVX [4]): 0.03 µM
- GI50 (HOP-62 [5]): 37.1 µM
- GI50 (SR): > 100 µM
- GI50 (RPMI-8226 [6]): > 100 µM
- GI50 (CCRF-CEM [7]): > 100 µM
- GI50 (HL-60(TB) [8]): 14.5 µM
- inhibition of growth at 10 µM (U-251): 26.3%
- inhibition of growth at 10 µM (SNB-75 [9]): 42.7%
- inhibition of growth at 10 µM (SK-MEL-5): 33.5%
- inhibition of growth at 10 µM (SF-295): 40.2%
- inhibition of growth at 10 µM (M14): 29.1%
- inhibition of growth at 10 µM (LOX IMVI): 23%
- inhibition of growth at 10 µM (CAKI-1): 30.3%
- inhibition of growth at 10 µM (RPMI-8226 [10]): 59.2%
- inhibition of growth at 10 µM (786-0): 28.8%
- inhibition of growth at 10 µM (MDA-MB-435): 35.1%
- inhibition of growth at 10 µM (HCC 2998 [11]): 27.6%
- inhibition of growth at 10 µM (COLO 205): 45.6%
- inhibition of growth at 10 µM (NCI-H460): 31.6%
- inhibition of growth at 10 µM (HOP-62 [12]): 34.5%
- inhibition of growth at 10 µM (A498 [13]): 27.6%
- inhibition of growth at 10 µM (EKVX [14]): 29.7%
- inhibition of growth at 10 µM (HL-60(TB) [15]): 82.3%
- inhibition of growth at 10 µM (CCRF-CEM [16]): 48.3%
- inhibition of growth at 10 µM (K562): 60%
- inhibition of growth at 10 µM (HOP-92 [17]): 39.6%
- GI50 (T47D): > 100 µM
- inhibition of growth at 10 µM (A549): 47.8%
- GI50 (BT-549): > 100 µM
- GI50 (MDA-MB-231): > 100 µM
- GI50 (UO-31): 13.8 µM
- LC50 (UO-31): 54.9 µM
- TGI (UO-31): 27.5 µM
- GI50 (OVCAR-4): > 100 µM
- GI50 (A498 [18]): 17.8 µM
- GI50 (OVCAR-3): > 100 µM
- GI50 (IGROV-1): 22.9 µM
